Assays:
[1] = Particle size analysis by laser diffraction (LA-950, Horiba); format: physicochemical; settings: for particle size distribution (PSD) after milling: 25% (w/v) genistein in olive oil, nanomilled 60 minutes in YTZ media, initial measurement; for D(0.50) particle size: material as provided by the commercial supplier (DSM), before milling
Source text: In the context of the present description, the particle size distribution of a given material is provided in volume diameter as measured in accordance with USP 429 using a laser diffraction particle size analyzer operating in the Mie Scattering Theory diffraction mode and equipped with a suspension dispersion sample chamber (e.g., as available from Horiba Instruments, Irvine, Calif., USA). For purposes of the present description, volume diameter is given as a particle size distribution defined by one or more of D (0.10), D (0.50) and D (0.90). When referred to herein, the term D (0.10) indicates the volume frequency distribution of particles for which 10% of the sample is below the referenced size, the term D (0.50) indicates the volume frequency distribution of particles for which 50% of the sample is below the referenced size, and the term D (0.90) indicates the volume frequency distribution of particles for which 90% of the sample is below the referenced size. In addition to measurement of the particle size distribution via laser diffraction, the results from such particle size analysis and/or the morphology of the particles may be confirmed using known electron microscopy techniques.
Genivida™, a food grade genistein, and Bonistein®, a pharmaceutical grade genistein, were obtained from a commercial supplier (DSM, http://www.dsm.com/corporate/home.html) and subjected to particle size analysis. […] FIG. 1 and FIG. 2 illustrate the PSD of the Genivida™ and Bonistein® materials as supplied from DSM.
The Genivida™ and Bonistein® materials were dispersed within the olive oil to provide a suspension composition that included 25% (w/v) genistein. Several samples ≈200 ml per sample) of the 25% w/v genistein/olive oil suspension were divided and milled using a, MiniCer® nanomill from Netzsch. The samples containing Bonistein® were milled for 60 minutes in a 0.3 mm YTZ media (yttria stabilized zirconium oxide (ZrO2) beads). Samples containing Genivida™ were milled for 60 minutes in a 0.5 mm YTZ media.
A selection of the samples containing Genivida™ were subjected to a pre-milling process (referred to or labeled as “pre-grind” samples). The pre-milling process also utilized a MiniCer® nanomill from Netzsch with YTZ milling media. However, the milling media utilized in the pre-milling step was 1.25 mm YTZ media. Pre-milling was carried out for 20 minutes, with the purpose of reducing the D(0.50) particle size of the Genivida™ to below 10 μm. After pre-milling, those samples subjected to the pre-milling procedure were milled in a MiniCer® nanomill for 60 minutes in a 0.3 mm YTZ media.
After the milling steps, particle size analysis was completed for each sample. […]

[2] = Particle size stability of genistein/olive oil nanosuspensions stored at ambient temperature (laser diffraction and TEM); format: physicochemical; settings: suspended in olive oil, glass vials
Source text: After the milling steps, particle size analysis was completed for each sample. […] An amount of each nanosuspension composition was aliquoted into 3.7 cc glass vials, which were then stored at ambient temperature.
At approximately two months, samples were taken from each vial and subjected to laser diffraction particle size analysis and TEM analysis.
At the 3-month time point, a sample of each nanosuspension was taken from each vial and again subjected to laser diffraction particle size analysis and TEM analysis. Even after three months, the genistein material suspended in the olive oil remained nano-sized, with the D(0.50) at 3 months in all cases being <300 nm (see, FIGS. 3A-3C).
For each of the samples at each time point, particle size analysis conducted by laser diffraction was carried out using a LA-950 particle size analyzer from Horiba Scientific, Edison, N.J.

| particle size distribution (PSD) after milling [1] | D(0.50) particle size [1] | D(0.50) at 3 months ([2]; 3 months, all samples) | particle size distribution (PSD) after storage ([2]; approximately two months, laser diffraction and TEM) | SMILES |
| --- | --- | --- | --- | --- |
| nanoparticulate PSD | 29.5 μm | – | – | O=c1c(-c2ccc(O)cc2)coc2cc(O)cc(O)c12 [Genivida™] |
| nanoparticulate PSD | 10.7 μm | – | – | O=c1c(-c2ccc(O)cc2)coc2cc(O)cc(O)c12 [Bonistein®] |
| – | – | < 300 nm | maintained a nanoparticulate PSD | O=c1c(-c2ccc(O)cc2)coc2cc(O)cc(O)c12 [genistein, 5,7-dihydroxy-3-(4-hydroxyphenyl)-chromen-4-one] |
